Data set [1] has as its system diabetic rats. To be noted: via an intragastric tube, compared with ONO-2235; cited from earlier work.
Data set [2] has as its target rat lens aldose reductase (Rattus norvegicus, UniProt P07943). The data set can be described thus: rat lens aldose reductase inhibition, decrease in absorbence at 340 nm. The class given is biochemical. To be noted: DL-glyceraldehyde substrate, 25° C., pH 7.0; read-out: IC50 against rat lens aldose reductase inhibitory activity. On the procedure:
Lens were collected from rat eyes and homogenized with sodium, potassium phosphate buffer (0.135 M, pH 7.0) containing 0.5 mM of phenyl methyl sulphonyl fluoride and 10 mM of β-mercaptoethanol. The homogenate was centrifuged at 10,000 r.p.m for 30 minutes at 4° C. The supernatant was taken as enzyme source. Enzyme reaction was carried out at 25° C. in a quartz cuvette with a 1 cm light path. The assay mixture contained 100 μL of nicotinamide adenine dinucleotide phosphate tetra sodium salt (from a stock solution of 9.6 mM), 100 μL of DL-glyceraldehyde (from a stock solution of 250 mM), 10 μL of inhibitor dissolved in dimethyl sulphoxide, sodium-potassium-phosphate buffer (0.135 M, pH 7.0) to make up the total volume to 3 mL and the reaction was initiated by the addition of 200 μL of enzyme solution. The enzyme reaction was monitored by the decrease in absorbence at 340 nm and compared with enzyme reaction without inhibitor.

The nature of data set [3]: solubility in solvents. It is filed as physicochemical.

The IC50 is the concentration needed to halve the response being measured.

Turning to `O=C(/C=C/c1ccc(O)cc1)c1ccc(O)cc1O` [Isoliquiritigenin, isoliquiritigenin], the “suppression of sorbitol accumulation in the red blood cells, the sciatic nerve, and the lens” value in data set [1] was “suppressed sorbitol accumulation in the red blood cells, the sciatic nerve, and the lens as effectively as ONO-2235”.
`CCCCCCOc1cc(O)cc2c1C(=O)C(O)=CC2=O` [Compound 1, 2, 6, dihydroxy, 8, hexoxy, 1, 4, naphthaquinone]: in data set [2], the IC50 was determined as 26.2 µM. Moreover, the “solubility in chloroform and hexane” value in data set [3] (chloroform and hexane) was “slightly soluble”. The “solubility in methanol, ethyl acetate, dimethyl sulphoxide, diethyl ether, sodium bicarbonate, sodium carbonate and sodium hydroxide solution” value in data set [3] (organic solvents and alkaline solutions) was “soluble”. For the same molecule, the solubility in water entry in data set [3] (water) is “insoluble”.

The values above are taken from patent US6822003B2, “Aldose reductase inhibitor and process for preparation thereof” (Council of Scientific and Industrial Research, priority 2001, dated 2004).
